Where a SMILES comes first, the peptide text is derived from it. The star is where a group is joined. Biotin = O=C1N[C@H]2[C@H](CS[C@H]2CCCCC(=O)*)N1
Experiments:
[1] = tested on: PBMC from patients with RA; conditions: 31 RA patient samples
Procedure: In FIG. 13A, Stimulation Index (SI) (y-axis). […] The dots represent individual patients. Lines indicate median values.
In FIG. 13B samples of 20 patients with recent onset RA and samples of 12 patients with OA were tested for T cell proliferation to the proteins and to the individual peptides.

[2] = tested on: PBMC of subjects with JIA; assay: immunological recognition (T cell proliferation and/or cytokine production) in subjects with JIA; format: cell-based, human
Description: The right Y-axis depicts the stimulation index SI, and the left Y-axis depicts the production of cytokines INF-γ and IL-10 in pg/ml.
Immunological recognition of an antigen can be defined as antigen-specific T cell proliferation and/or antigen-specific cytokine production after culture with the specific antigens. In addition, in a very high percentage of subjects (ranging from 60 to 100%), T cell recognition of these pan DR binding hsp60 peptides could be detected (FIG. 9). This percentage can be considered extremely high if one considers both the failures of previous studies to determine T cell epitopes in JIA and the heterogenic HLA background in subjects with JIA.
If one compares the identified peptides with peptides that previously have been identified through the rat model of arthritis, the superiority of the method used here becomes evident. In previous studies in the model of adjuvant arthritis, it has been shown that mycobacterial hsp60 peptide containing amino acids 256-270 could induce protection in Adjuvant Arthritis. Following this finding a lot of effort has been put in attempting to identify the presence of 256-270 specific T cells in subjects with JIA. Based on the data provided by the computer algorithm, a new peptide was designed that was compared to the 256-270 aa peptide. […]

[3] = tested on: PBMCs from patients with RA; assay: T cell proliferation assay, PBMC of RA patients in the dnaJP1 trial; format: cell-based, human; conditions: negative control peptide
Description: FIG. 20A-L Treatment-induced modulation of T cell responses to dnaJP1. PBMC immune responses to dnaJP and controls from patients enrolled in the trial (n=15). T cell-proliferative response after in vitro culture with dnaJP1(a) or an irrelevant altered peptide ligand (b) in a standard proliferation assay. Phytohemagglutinin (a, ▴) was used as a positive control for T cell proliferation. […] Intracellular production of IL-2, IFN-γ, and TNF-α in response to dnaJP1 (c, e, and g) or PADRE peptide (d-f and h, respectively) at day 0 assessed at monthly intervals during treatment. Cytokine production is expressed as the percentage of CD3/cytokine double-positive cells measured by FACS in antigen-stimulated cultures, nonstimulated cultures (y axis). Error bars represent SD of the mean. Intracellular production of IL-4 (i) and IL-10 (k) after in vitro culture with dnaJP1 or with PADRE (j and l) at days 0, 56, and 168 of the treatment period.
T Cell Proliferation Assays. Peripheral blood mononuclear cells (PBMCs) were cultured in triplicate in […] u-shaped bottom wells (Costar, Cambridge, Mass.) at 5×10^5 cells per well for 120 h with or without antigen. […] Thymidine uptake was measured by using a liquid scintillation counter. Results are expressed as a mean cpm of triplicate cultures. The magnitude of the response is expressed as stimulation index: the mean cpm of stimulated/nonstimulated cultures. […]

[4] = tested on: PBMC from patients with JDM; assay: T cell proliferation (thymidine incorporation), PBMC of Juvenile Dermatomyositis patients; format: cell-based, human; conditions: 10 micrograms/ml, 96 hours; active disease vs remission
Description: FIG. 17 is a graph showing T cell proliferative responses of PBMC from patients with Juvenile Dermatomyositis (JDM) towards the hsp60 bacterial and human peptides of FIG. 5. Patients in remission (n=7); patients with active JDM (n=6).
This example identifies in another pediatric disease a peptide from the pool whose recognition triggers regulatory type T cells. Thirteen patients with a definite diagnosis of JDM according to standard disease criteria, were included in this study. […] All antigens were cultured at 10 micrograms/ml. After 96 hours thymidine incorporation was measured. The results are expressed in FIG. 17 as stimulation index (SI). SI is defined as counts per minute (cpm) thymidine incorporation in cells cultured with an antigen divided by cpm of cells cultured in culture medium without antigen. […] Bars represents the mean SI for PBMC from JDM patients with either active disease or incomplete clinical remission.

patients with RA = conditions: 15 RA patients, 0.25, 2.5 or 25 mg daily orally for 6 months
Description: This study was a Phase I Immune Tolerization study conducted to determine whether in RA interplay between HLA and dnaJ-derived peptides there is maintained and/or stimulation of T cells which participate in autoimmune inflammation. The trial (number “n” of patients who completed=13) was designed in order to adhere to the American College of Rheumatology (ACR) 20 criteria for evaluation of efficacy.
Data from Phase I: The data shown in FIGS. 11A-E and 12A-E stem from a Phase I trial in which a total of 13 human RA patients were treated with three different doses of dnaJP1 qd po for 6 months. In vitro T cell responses to dnaJP1 were monitored at monthly intervals by measuring T cell proliferation and cytokine production in patients treated with dnaJP1 or control molecules.
We designed a pilot clinical trial to obtain information regarding both safety and immunological efficacy of the treatment. Enrollment criteria for this study included active RA as defined by the American College of Rheumatology, a disease duration <5 years and in vitro responsiveness to dnaJP1, defined as T cell proliferation and/or production of proinflammatory cytokines. DnaJP1 was given orally for 6 months. […]

[5] = tested on: PBMC of subjects with JIA; format: cell-based, human; conditions: 72 hours culture, ELISA

Row | Compound | recognition (T cell proliferation) by RA patients [1] | also measured
1 | KCEFQDAYVLLSEKK [P6] | recognized | –
2 | EAVLEDPYILLVSSK [P5] | recognized | –
3 | GEALSTLVVNKIRGT [P1] | recognized | T cell responses as defined by T cell proliferation and cytokine production [2]: did induce T cell responses
4 | DERAAYDQYGHAAFE (Biotin-DERAAYDQYGHAAFE-NH2; SMILES C[C@H](NC(=O)[C@H](C)NC(=O)[C@H](Cc1c[nH]cn1)NC(=O)CNC(=O)[C@H](Cc1ccc(O)cc1)NC(=O)[C@H](CCC(N)=O)NC(=O)[C@H](CC(=O)O)NC(=O)[C@H](Cc1ccc(O)cc1)NC(=O)[C@H](C)NC(=O)[C@H](C)NC(=O)[C@H](CCCNC(=N)N)NC(=O)[C@H](CCC(=O)O)NC(=O)[C@H](CC(=O)O)NC(=O)CCCC[C@@H]1SC[C@@H]2NC(=O)N[C@@H]21)C(=O)N[C@@H](Cc1ccccc1)C(=O)N[C@@H](CCC(=O)O)C(N)=O) [dnaJPv, altered peptide ligand, identical to dnaJP1 except for the two N-terminal amino acids; negative control] | – | proliferative T cell response in patients with RA [3]: does not induce a proliferative T cell response; proliferative T cell response in patients with RA ([3]; listed as dnaJpV): not stimulatory in patients
5 | VASLLTTAEVVVTEI (listed as Homo sapiens) [P8] | recognized | recognition (T cell proliferation, SI) in JDM patients [4]: recognized by the patients during disease remission
6 | AYVLLSEKKISSIQS [P4] | recognized | –
7 | GEALSTLVLNRLKVG [P2] | recognized | –
8 | PYILLVSSKVSTVKD [P3] | recognized | –
9 | C[C@H](NC(=O)[C@H](C)NC(=O)[C@H](Cc1c[nH]cn1)NC(=O)CNC(=O)[C@H](Cc1ccc(O)cc1)NC(=O)[C@H](CCC(N)=O)NC(=O)[C@H](CC(=O)O)NC(=O)[C@H](Cc1ccc(O)cc1)NC(=O)[C@H](C)NC(=O)[C@H](C)NC(=O)[C@H](CCCNC(=N)N)NC(=O)[C@H](CCCCN)NC(=O)[C@H](CCC(N)=O)NC(=O)CCCC[C@@H]1SC[C@@H]2NC(=O)N[C@@H]21)C(=O)N[C@@H](Cc1ccccc1)C(=O)N[C@@H](CCC(=O)O)C(N)=O [dnaJP1] (Biotin-QKRAAYDQYGHAAFE-NH2) | – | tolerability / side effects (patients with RA): well tolerated because no significant side effects were reported
10 | mycobacterial hsp60 256-270: negative control peptide, mycobacterial hsp60 amino acids 256-270, protective in rat adjuvant arthritis | – | antigen-specific cytokine production (IL-10, IFN-γ, TNF-α) [5]: did not induce any cytokine production
11 | IAGLFLTTEAVVADK [P7] | recognized | –

From patent US7608683B2, “Stress proteins and peptides and methods of use thereof” (The Regents of the University of California, priority 2000, dated 2009)
